Measured values from patent US20110288072A1, “Use of ivabradine for obtaining medicaments intended for the treatment of endothelial dysfunction” (LES LABORATOIRES SERVIER, priority 2007, published 2011).

Key:
[1] = tested on: dyslipidaemic mice, and rats with heart failure; test: Cardiac frequency after 3 months' treatment in the animal models; format: in vivo, mouse, rat; details: 10 mg/kg per day for 3 months
[2] = tested on: dyslipidaemic mice, and rats with heart failure; test: Mechanism of endothelial dysfunction explored with inhibitors of the principal pathways of vasodilation; format: in vivo, mouse, rat; details: mechanism of the beneficial effects; 10 mg/kg per day for 3 months
Description: (§1) Some animals were treated with ivabradine, 10 mg/kg per day for 3 months. Dyslipidaemic mice, rats with heart failure, healthy mice (Wild type) and healthy rats, untreated, acted as controls. At the end of the treatment period, the arteries were isolated and mounted in a myograph in order to measure their diameter after the application of acetylcholine or to measure the increase in flow. In order to explore more closely the mechanism associated with endothelial dysfunction, inhibitors of the principal pathways of vasodilation were tested: a free-radical chelating agent, a nitrogen monoxide production inhibitor, a prostacyclin pathway inhibitor.

dyslipidaemic mice = test: Endothelial function and compliance of isolated renal and cerebral arteries (myograph) in dyslipidaemic mice; format: in vivo, mouse; details: 10 mg/kg per day for 3 months
Description: (§2) The impact of treatment with ivabradine on endothelial function was studied in two pathological animal models, dyslipidaemic mice, and rats with heart failure, on 4 different vascular beds, renal and cerebral arteries in the mouse, coronary and mesenteric arteries in the rats. Study of the endothelial function comprises measuring the capacity of the vessel to dilate in response to various stimuli, such as acetylcholine, or measuring the increase in flow in the vessel.
as §1
The compliance (capacity of the vessel to dilate as the transmural pressure increases) of the cerebral arteries of the mice was also evaluated.

rats with heart failure = test: Endothelial function of isolated coronary and mesenteric arteries (myograph) in rats with heart failure; format: in vivo, rat; details: 10 mg/kg per day for 3 months
Description: as §2, §1

## COc1cc2c(cc1OC)CC(=O)N(CCCN(C)C[C@H]1Cc3cc(OC)c(OC)cc31)CC2 [ivabradine, 3-{3-[{[(7S)-3,4-dimethoxybicyclo [4.2.0]octa-1,3,5-trien-7-yl]-methyl}-(methyl)-amino]-propyl}-7,8-dimethoxy-1,3,4,5-tetrahydro-2H-3-benzazepin-2-one]
[1]
  reduction in cardiac frequency: 10-20%
[2]
  nitrogen monoxide pathway: preservation of the nitrogen monoxide pathway
  oxidative stress: decrease in oxidative stress
Dyslipidaemic mice; DL mouse, FIG. 1C, D
  endothelial dysfunction (capacity to dilate) in the cerebral artery: completely prevents entothelial dysfunction
  endothelial dysfunction (capacity to dilate) in the renal artery: completely prevents entothelial dysfunction
Dyslipidaemic mice; treated mice
  compliance of the isolated cerebral arteries: improved
Rats with heart failure; HF rat, FIG. 1A
  endothelial dysfunction (capacity to dilate) in the coronary artery: completely prevents entothelial dysfunction
Rats with heart failure; treated HF rat compared with untreated HF rat, FIG. 1B
  capacity of the mesenteric artery to dilate: appreciably improved
